Laboratory results as given in patent US20220185744A1, “FERTILISING COMPOSITION WHICH INCLUDES A PLANT-ASSIMILABLE PHOSPHORUS AND CALCIUM POTENTIATOR AND USE THEREOF” (priority 2019, published 2022).

Tested on: maize plants
Experiment: Pot trial: single root-exudate metabolites applied to soil, dry biomass of maize plants at 6 weeks
Type: in vivo
Details: 1 kg/ha, pot trial
Description: These metabolites were: gluconic acid, glyceric acid, lactic acid, glucose, threonic acid, fructose, aspartic acid, serine, glycerol, arabinose and glutamine. […] The effect of the metabolites was compared with a negative control (no treatment) and a positive control with a conventional phosphate fertiliser (triple superphosphate at a dose of 100 phosphorus fertiliser units —P2O5— per hectare). […] This level of assimilable phosphorus corresponds to 4.5 kg of P2O5 per hectare (considering 30 centimetres of arable soil and an average density of 1,300 kg/m^3, the mass per hectare would be approximately 3,900 tonnes).

Row | Structure (SMILES) | Growth enhancement in maize (in words)
1 | O=C(O)C(O)CO (centres unmarked) [Glyceric acid, 2,3-dihydroxypropanoic acid] | the most growth-enhancing metabolite in maize

Same assay, conditions: metabolite 1 kg/ha in pot with 3 kg soil (assimilable P 0.5 ppm), triple superphosphate 100 P2O5 units/ha

Row | Structure (SMILES) | Dry biomass of maize plants at 6 weeks of growth, dry weight
2 | NC(=O)CC[C@H](N)C(=O)O [Glutamine] | 1.55 g
3 | OCC(O)CO [Glycerol] | 1.30 g
4 | O=C(CO)[C@@H](O)[C@H](O)[C@H](O)CO [Fructose] | 1.38 g
5 | O=C(O)[C@@H](O)[C@H](O)CO [Threonic acid] | 1.14 g
6 | O=C(O)[C@H](O)[C@@H](O)[C@H](O)[C@H](O)CO [Gluconic acid] | 1.77 g
7 | O=C(O)C(O)CO (centres unmarked) [Glyceric acid, 2,3-dihydroxypropanoic acid] | 1.93 g
8 | O=C[C@@H](O)[C@H](O)[C@H](O)CO [Arabinose] | 1.26 g
9 | N[C@@H](CO)C(=O)O [Serine] | 1.31 g
10 | CC(O)C(=O)O (centres unmarked) [Lactic acid] | 1.73 g
11 | N[C@@H](CC(=O)O)C(=O)O [Aspartic acid] | 1.16 g
